Results from ChEMBL document CHEMBL3739354, “Nitrofuranyl Methyl Piperazines as New Anti-TB Agents: Identification, Validation, Medicinal Chemistry, and PK Studies” (ACS Med Chem Lett, 2015).
≈ marks a conversion by molar mass, not a printed value.

Experiments:
[1] = tested on: Mycobacterium tuberculosis; assay: microbe, parasite or virus in culture; settings: 168 h
[2] = tested on: Mycobacterium tuberculosis; assay: microbe, parasite or virus in culture; settings: 168 h; remark: listed apart in the source

With `COc1cccc(N2CCN(Cc3ccc([N+](=O)[O-])o3)CC2)c1` the MIC90 [1] was 0.37 µM (≈ 0.117 µg/mL) and the MIC90 [2] was 0.09 µM (≈ 0.0286 µg/mL).
Compound `O=[N+]([O-])c1ccc(CN2CCN(c3ccc(N4CCOCC4)cc3)CC2)o1` has an MIC90 [1] of 0.08 µM (≈ 0.0298 µg/mL) and an MIC90 [2] of 0.08 µM (≈ 0.0298 µg/mL).
`CC(C)(C)OC(=O)N1CCN(Cc2ccc([N+](=O)[O-])o2)CC1` was tested, and the MIC90 [1] was 0.32 µM (≈ 0.0996 µg/mL) and the MIC90 [2] was 0.12 µM (≈ 0.0374 µg/mL).
For `O=[N+]([O-])c1ccc(CN2CCN(c3ccccc3)CC2)o1`, the MIC90 [1] was 13.9 µM (≈ 4 µg/mL).
For `CC(C)(C)c1ccc(N2CCN(Cc3ccc([N+](=O)[O-])o3)CC2)cc1`, the MIC90 [1] was 1.32 µM (≈ 0.453 µg/mL) and the MIC90 [2] was > 25.2 µM.
`O=[N+]([O-])c1ccc(CN2CCN(c3ccccc3F)CC2)o1` gave an MIC90 [1] of 13.1 µM (≈ 4 µg/mL).
Compound `COc1c(N2CCNC(C)C2)c(F)cc2c(=O)c(C(=O)O)cn(C3CC3)c12` (stereo not given) [GATIFLOXACIN] has an MIC90 [1] of 2.66 µM (≈ 0.999 µg/mL) and an MIC90 [2] of 1.33 µM (≈ 0.499 µg/mL).
For `O=[N+]([O-])c1ccc(CN2CCN(S(=O)(=O)c3ccccc3)CC2)o1`, the MIC90 [1] was 2.13 µM (≈ 0.748 µg/mL) and the MIC90 [2] was > 22.7 µM.
With `CO[C@H]1/C=C/O[C@@]2(C)Oc3c(C)c(O)c4c(O)c(c(/C=N/N5CCN(C)CC5)c(O)c4c3C2=O)NC(=O)/C(C)=C\C=C\[C@H](C)[C@H](O)[C@@H](C)[C@@H](O)[C@@H](C)[C@H](OC(C)=O)[C@@H]1C` [RIFAMPIN] the MIC90 [1] was 311 µM (≈ 256 µg/mL) and the MIC90 [2] was 156 µM (≈ 128 µg/mL).
`O=[N+]([O-])c1ccc(CN2CCN(c3ccc(Cl)cc3)CC2)o1` gave an MIC90 [1] of 0.072 µM (≈ 0.0232 µg/mL) and an MIC90 [2] of 0.029 µM (≈ 0.00933 µg/mL).
`O=[N+]([O-])c1ccc(CN2CCN(S(=O)(=O)c3ccc(F)cc3)CC2)o1` gave an MIC90 [1] of 1.35 µM (≈ 0.499 µg/mL) and an MIC90 [2] of 1 µM (≈ 0.369 µg/mL).
Compound `O=[N+]([O-])c1ccc(CN2CCN(c3cccc(Cl)c3)CC2)o1` has an MIC90 [1] of 0.37 µM (≈ 0.119 µg/mL).
For `Cc1cccc(N2CCN(Cc3ccc([N+](=O)[O-])o3)CC2)c1C`, the MIC90 [1] was 25.3 µM (≈ 7.98 µg/mL).
`O=[N+]([O-])c1ccc(CN2CCN(c3cccc(C(F)(F)F)c3)CC2)o1` showed an MIC90 [1] of 5.63 µM (≈ 2 µg/mL).
`O=[N+]([O-])c1ccc(S(=O)(=O)N2CCN(Cc3ccc([N+](=O)[O-])o3)CC2)cc1` was tested, and the MIC90 [1] was 0.63 µM (≈ 0.25 µg/mL) and the MIC90 [2] was 4.19 µM (≈ 1.66 µg/mL).
`O=[N+]([O-])c1ccc(CN2CCN(c3ccc(F)cc3)CC2)o1` showed an MIC90 [1] of 6.55 µM (≈ 2 µg/mL).
With `Cc1ccc(S(=O)(=O)N2CCN(Cc3ccc([N+](=O)[O-])o3)CC2)cc1` the MIC90 [1] was 0.68 µM (≈ 0.248 µg/mL) and the MIC90 [2] was 14.6 µM (≈ 5.33 µg/mL).
With `N#Cc1cccc(N2CCN(Cc3ccc([N+](=O)[O-])o3)CC2)c1` the MIC90 [1] was 0.19 µM (≈ 0.0593 µg/mL) and the MIC90 [2] was 0.06 µM (≈ 0.0187 µg/mL).
